Results taken from patent US20090175981A1, “COMPOSITIONS, METHODS AND USES FOR A NOVEL FAMILY OF PEPTIDES” (priority 2004, published 2009).
Several values for one entry are separate records, joined by “and”; a condition that tells them apart may be missing. Identical values can stand only once. Marks after values point to notes of the source that are not given here.

Columns and labels:
straight run broilers [1] = experiment: Growth and feed conversion of 3-wk old broilers in batteries, pelleted starter feed (Studies 3-1 and 3-2); assay type: in vivo, chicken
Description: Eight (8) study repetitions per treatment were used, again with 4 birds per pen.

carboxypeptidase Y = biological target: T1, carboxypeptidase Y (Saccharomyces cerevisiae, UniProt P00729)
T1 sequence (P00729 112-532): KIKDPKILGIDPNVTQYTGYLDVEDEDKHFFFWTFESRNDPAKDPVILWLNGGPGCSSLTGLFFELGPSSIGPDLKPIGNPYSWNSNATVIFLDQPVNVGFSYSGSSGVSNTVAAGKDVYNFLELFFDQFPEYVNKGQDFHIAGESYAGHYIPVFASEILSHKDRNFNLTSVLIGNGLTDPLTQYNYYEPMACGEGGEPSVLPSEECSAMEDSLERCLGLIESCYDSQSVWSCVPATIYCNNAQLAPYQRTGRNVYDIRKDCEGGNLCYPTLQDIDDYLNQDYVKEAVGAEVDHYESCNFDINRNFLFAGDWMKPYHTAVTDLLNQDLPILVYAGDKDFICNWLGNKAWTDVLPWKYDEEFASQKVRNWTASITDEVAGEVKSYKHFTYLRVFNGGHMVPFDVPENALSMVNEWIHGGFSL

Tetrahymena = experiment: In vitro anti-protozoal MIC; assay type: cell-based
food-producing animals = experiment: Growth promotion in food-producing animals (overall statement); assay type: in vivo, chicken; settings: used to promote growth
Description: Alternatively, but in no way limiting the present invention, the present invention may be used as an animal-use only antibiotic for bacterial infections.

S. cerevisiae = experiment: In vitro antifungal MIC; assay type: cell-based
Pseudomonas = experiment: In vitro antimicrobial MIC, Pseudomonas; assay type: cell-based
Procedure: (§1) MIC determination assays. Staphylococcal aureus was grown to mid-log phase in LB at 37° C., and diluted by 500-fold with fresh LB and dispensed into 96-well micro-titer plates. Different concentrations of peptides were added, and the micro-titer plates were incubated at 37° C. with shaking. A minimal inhibition concentration (MIC) was determined as the lowest peptide concentration that produced a clear well. All experiments were performed in triplicates, and highly consistent MICs were obtained.
(§2) For Gram (−) the following were the antimicrobial activities observed: E. coli: MIC>20 microgram/ml; Pseudomonas and Salmonella: MIC>100 microgram/ml.

Broiler Chicken [2] = experiment: Growth promoting Studies 4-1 and 4-2 with direct coccidial challenge; assay type: in vivo
[3] = assay type: physicochemical; settings: pH 1.0 plus 100° C. overnight
straight run broilers [4] = experiment: Growth and feed conversion of 20-day old broilers in batteries, mash feed (Studies 2-1 and 2-2); assay type: in vivo, chicken
Procedure: Briefly, the peptide was used in a semi-purified form to study the growth and feed conversion of […] old straight run broilers in batteries (Studies 2-1 and 2-2). Two amounts were tested against a feed control, peptide at 6 ppm and peptide at 12 ppm, 12 repetitions were carried out per treatment with 4 birds per pen. The diet used in the study was as follows.

E. coli = experiment: In vitro antimicrobial MIC, E. coli; assay type: cell-based
Procedure: as §1, §2

broiler chickens = experiment: 42-day broiler floor pen trial with natural colibacillosis challenge; assay type: in vivo, chicken
Procedure: A broiler floor pen trial to compare the performance of a new anti-microbial designated for this project as BT1583 alone and in combination with the widely used coccidiostat monensin (MON) to MON fed alone, MON in combination with the also widely used antimicrobial Bacitracin MD (BMD) and BMD alone.
The following levels of each treatment were evaluated:
The study design included 10 pens per treatment and 40 birds per pen housed on day of hatch. Two basal corn-soy based diets of decreasing protein (approximately 23 to 20%) and increasing metabolizable energy (approximately 1400 to 1455 kcal/lb) were used from Day 0 to 21 (starter feed) and Days 22 to 42 (grower feed), respectively. Treatment premixes were measured and blended into diets at required levels. Between days 0 and 21 mortality was less than 1% with all birds growing optimally and of high health across all groups.
Beginning on study day 22, the study director modulated house temperature and air flow to mimic industry conditions conducive to outbreaks of colibacillosis within naïve broiler flocks. This was done to stimulate a natural challenge for this study. Mortality climbed to a house average of approximately 10% by Day 42. A majority of these deaths occurred in groups not receiving BT1583 or MON. Lesions were consistent with those of colibacillosis (air sac, pneumonia, peri-hepatitis, peri-carditis and extreme morbidity). All mortality was documented (weight at death and post-mortem observations). All birds and feeds were weighed at 42 days. All remaining birds were euthanized on Day 42 by asphyxiation with the carcasses submitted for rendering.
The following variables were tested: Response Variables: Gain Per Bird, Feed Per Gain, Mortality (%), Adjusted Feed Per Gain. F test from One Way ANOVA with one blocking factor=location, at Day 42 using 0.05 level of significance.
All Response Variables: LSD T-test procedure for pair-wise comparisons with Type 1 error of means when ANOVA F ratio is significant, overall significance level of 0.05 used. Lines below means (see Table 30, below) indicate groups with insignificant differences in means.
Adjusted Feed/Gain: The total weight of mortality in each pen was added to the final live weight, that value reduced by subtracting the initial weight and then dividing that value into the Total feed consumed to calculate the Adjusted Feed/Gain.

Broiler Chicken [5] = experiment: Growth promoting battery Studies 1-1 and 1-2; assay type: in vivo
Salmonella = experiment: In vitro antimicrobial MIC, Salmonella; assay type: cell-based
Procedure: as §1, §2

Staphylococcal aureus = experiment: MIC determination assay / antibiotic activity of synthetic BT variants; assay type: cell-based; settings: FIG. 6B
Procedure: as §1

Gram-positive bacteria = experiment: In vitro antibacterial MIC, Gram-positive bacteria; assay type: cell-based; settings: most Gram (+)
Procedure: as §1, §2

[6] = BT1583 12 ppm, BMD 50 ppm, COB 90 ppm, alone or combined, pelleted feed
[7] = Study 4-1, 24 ppm with direct coccidial challenge
[8] = Study 4-2, 48 ppm with direct coccidial challenge
[9] = MON 99 ppm, BT1583 12 ppm, BMD 55 ppm, alone or combined

Me2Bmt-L-dO-I-V-V-dK-V-dL-K-dY-L-V-CH2OH [BT1583]
20-day cumulative feed conversion rate, Mean (straight run broilers [1]; [6]): 1.3308
21-day cumulative feed conversion rate, Estimated Marginal Mean (straight run broilers [1]; [6]): 1.331
21-day cumulative weight gain, Mean (straight run broilers [1]; [6]): 831.7396 and 831.740
Additional weight gain (%) (straight run broilers [1]; Study 3-1, 12 ppm): 16%
Feed conversion improvement (point) (straight run broilers [1]; Study 3-1, 12 ppm): 9 point
Additional weight gain (%) (straight run broilers [1]; Study 3-2, 12 ppm with Coban): 5.4%
Feed conversion improvement (point) (straight run broilers [1]; Study 3-2, 12 ppm with Coban (vs Coban alone)): 9 point
cleavage by carboxypeptidase Y (carboxypeptidase Y): resistant
MIC (Tetrahymena): 25 microgram/ml
feed conversion gain (food-producing animals): about 10 points
MIC (S. cerevisiae): 50 microgram/ml
MIC (Pseudomonas): > 100 microgram/ml
Additional weight gain (%) (Broiler Chicken [2]; [7]): 7.1%
Feed conversion improvement (point) (Broiler Chicken [2]; [7]): 13 point
Additional weight gain (%) (Broiler Chicken [2]; [8]): 9.3%
Feed conversion improvement (point) (Broiler Chicken [2]; [8]): 17 point
in vitro inactivation [3]: only known in vitro method to inactivate it is pH 1.0 plus 100 °C overnight
20-day cumulative feed conversion rate, Mean (straight run broilers [4]; 6 ppm in mash feed): 1.5065 and 1.506
20-day cumulative weight gain, Mean (straight run broilers [4]; 6 ppm in mash feed): 591.975
20-day cumulative feed conversion rate, Mean (straight run broilers [4]; 12 ppm in mash feed): 1.4959 and 1.496
20-day cumulative weight gain, Mean (straight run broilers [4]; 12 ppm in mash feed): 618.934
Additional weight gain (%) (straight run broilers [4]; Study 2-1, 6 ppm): 6.7%
Feed conversion improvement (point) (straight run broilers [4]; Study 2-1, 6 ppm): 9 point
Additional weight gain (%) (straight run broilers [4]; Study 2-2, 12 ppm): 11%
Feed conversion improvement (point) (straight run broilers [4]; Study 2-2, 12 ppm): 10 point
MIC (E. coli): > 20 microgram/ml
efficacy against colibacillosis (broiler chickens; 3 to 4 week old naïve broiler chickens, simulated commercial conditions): highly effective
feed/gain advantage over monensin and BMD fed alone and in combination (broiler chickens; Day 42): ≥ 10 point
weight gain advantage over monensin and BMD fed alone and in combination (broiler chickens; Day 42): ≥ 20 point
Day 42 Feed/Gain (broiler chickens; [9]): 1.722^ab
Day 42 Gain/Bird (broiler chickens; [9]): 4.333^ab lb
Day 42 Mortality (%) (broiler chickens; acute and chronic colibacillosis, MON 99 ppm, BT1583 12 ppm, BMD 55 ppm): 2.75^a %
Day 42 Adjusted Feed/Gain (broiler chickens; adjusted for weight of mortality, MON 99 ppm, BT1583 12 ppm, BMD 55 ppm): 1.704^ab
mortality rate compared with non-supplemented controls (broiler chickens; alone or in combination): lower mortality rates
Additional weight gain (%) (Broiler Chicken [5]; Study 1-1, 10 ppm): 17%
Feed conversion improvement (point) (Broiler Chicken [5]; Study 1-1, 10 ppm): 7 point
Additional weight gain (%) (Broiler Chicken [5]; Study 1-2, 30 ppm): 17%
Feed conversion improvement (point) (Broiler Chicken [5]; Study 1-2, 30 ppm): 8 point
MIC (Salmonella): > 100 microgram/ml
antibiotic activity (Staphylococcal aureus): full antibiotic activity
MIC (Gram-positive bacteria): 1 microgram/ml
